Reference: patent US4424223A, “Polycyclic compounds containing a double bond in the D-ring pharmaceutical compositions containing them, and methods of treating psoriasis with them” (Richter Gedeon Vegyeszeti Gyar RT, priority 1981, dated 1984)
Structures can show the parent of a compound that is named as a salt.

Tests used:
[1] = tested on: phosphodiesterase isolated from rat brain; assay: Inhibition of phosphodiesterase isolated from rat brain (radioisotopic, 3H-c-AMP); type: biochemical; conditions: for effect of the test compound on enzyme activity: 20 minutes incubation; for IC50: rat brain, read off from curve, 50% decrease of enzyme activity, read-out: I50 on phosphodiesterase
Experimental: (§1) The model experiments were performed by means of phosphodiesterase isolated from animal tissues (rat brain, cattle brain, cattle heart). The enzyme was isolated by the technique of J. Schro/ der and H. V. Richenberg [Biochem. Biophys. Acta 302, 50 (1973)] whereupon the phosphodiesterase isolated was purified according to the method of J. G. Hardman and E. W. Sutherland [J. Biol. Chem. 240, 3704 (1965)] and the activity of the purified enzyme was measured by a radioisotopic method developed by G. Po/ ch, in the presence of an excess amount of c-AMP tricium-labeled (10.1 mmoles of a c-AMP substrate containing 2.59K Bq of 3H-c-AMP), in an incubator. The measurement was first carried out without the inhibitory substance and then in the presence of 17,18-dehydro-apivincaminol-3',4',5'-trimethoxy-benzoate as an inhibitor agent, after an incubation time of 20 minutes [N.S. Arch. Pharmacol. 268, 272 (1971)]. From the test compound a 1 mmole stock solution was prepared with aqueous hydrochloric acid solution and different amounts of the stock solution were added to the enzyme preparates corresponding to 5×10^-6, 1×10^-5 and 5×10^-5 mole/lit. of the test compound. A solution of papaverine used as reference compound is added to the enzyme preparate in an analogous manner.
The activity of the solutions containing 17,18-dehydro-apovincaminol-3',4',5'-trimethoxy-benzoate and papaverine was expressed in percents of the control (enzyme solution without any inhibitory substance, 100%). The results obtained on an enzyme isolated from rat brain are as follows:
(§2) The tests on an enzyme isolated from cattle brain and cattle heart, resp. were carried out in an analogous way.

[2] = tested on: phosphodiesterase isolated from cattle brain; assay: Inhibition of phosphodiesterase isolated from cattle brain (radioisotopic, 3H-c-AMP); type: biochemical; conditions: for IC50: cattle brain, read off from curve, 50% decrease of enzyme activity, read-out: I50 on phosphodiesterase
Experimental: as §1, §2

[3] = tested on: phosphodiesterase isolated from cattle heart; assay: Inhibition of phosphodiesterase isolated from cattle heart (radioisotopic, 3H-c-AMP); type: biochemical; conditions: for IC50: cattle heart, read off from curve, 50% decrease of enzyme activity, read-out: I50 on phosphodiesterase
Experimental: as §1, §2

psoriasis [4] = assay: Clinical test of topical creams on patients suffering from psoriasis (plaque method); type: in vivo, patients (human); conditions: cream with 2% active ingredient, scale 0-3
Experimental: The first clinical tests were carried out with preparations for topical use, e.g. ointments, creams, solutions, tinctures, pastes, aerosols, etc. containing the new compound according to the invention as an active ingredient. More particularly, creams containing 2%, 1%, 0.5%, 0.25% and […], resp. of 17,18-dehydro-apovincaminol-3',4',5'-trimethoxy-benzoate were employed.
Clinical tests were performed on patients suffering from psoriasis. During the tests the patients have not received any systemic, e.g. immunosuppressive, cytostatic or glucocorticoid treatment for their basic disease.
Groups of 5 were examined by the so-called plaque method. One side of symmetrical skin lesions was treated by a creme containing the active ingredient in the desired concentration, while on the other side a placebo was applied. The remaining psoriatic sites on the skin were subjected to other topical treatments for example with ointments containing flumethasone pivalate and salicylic acid, as active ingredient, which are widely used for the treatment of psoriasis.
The tests were started with creams having a higher active ingredient concentration and then further patients were treated with preparations containing the smallest effective active ingredient concentration.
The efficiency was evaluated upon observing three symptoms: inflammation, infiltration and desquamation (peeling). The intensity of the symptoms was qualified by scores between 0 and 3. The total number of scores served as a measure of the reduction of symptoms. The results were evaluated by methods of mathematical statistics. During the treatment undesirable side effects have never been observed.
Evaluations were made before the treatment (I), after a one-week treatment (II) and after a two-week treatment (III). The results set forth in the following table are the average number of scores (total number of scores/number of patient) for creams containing 2% of active ingredient.

psoriasis [5] = conditions: phosphodiesterase inhibitor; Voorhees et al., Arch. Derm. 104, 359 (1971); cited from earlier work
[6] = rat brain enzyme, 1 × 10^-5 mole/lit.
[7] = rat brain enzyme, 5 × 10^-5 mole/lit.
[8] = rat brain enzyme, 5 × 10^-6 mole/lit.

CC[C@]12C=CCN3CCc4c(n(c5ccccc45)C(COC(=O)c4cc(OC)c(OC)c(OC)c4)=C1)[C@@H]32 [17,18-Dehydro-apovincaminol-3',4',5'-trimethoxy-benzoate]
times more effective than papaverine ([1]; rat brain enzyme, versus papaverine): 7 times
times more effective than papaverine ([2]; cattle brain enzyme, versus papaverine): 6 times
times more effective than papaverine ([3]; cattle heart enzyme, versus papaverine): 18 times
Average number of scores, Desquamation (psoriasis [4]; I: before the treatment): 2.0 scores
Average number of scores, Infiltration (psoriasis [4]; I: before the treatment): 2.6 scores
Average number of scores, Inflammation (psoriasis [4]; I: before the treatment): 2.8 scores
Average number of scores, Desquamation (psoriasis [4]; II: after one-week treatment): 0.8 scores
Average number of scores, Infiltration (psoriasis [4]; II: after one-week treatment): 1.6 scores
Average number of scores, Inflammation (psoriasis [4]; II: after one-week treatment): 2.2 scores
Average number of scores, Desquamation (psoriasis [4]; III: after two-week treatment): 0.2 scores
Average number of scores, Infiltration (psoriasis [4]; III: after two-week treatment): 0.6 scores
Average number of scores, Inflammation (psoriasis [4]; III: after two-week treatment): 1.6 scores

CC[C@]12C=CCN3CCc4c(n(c5ccccc45)C(COC(=O)c4cc(OC)c(OC)c(OC)c4)=C1)[C@@H]32 [17,18-dehydro-apovincaminol-3',4',5'-trimethoxy-benzoate.HCl]
effect of the test compound on enzyme activity [1, 6]: 40.7 % of the control
effect of the test compound on enzyme activity [1, 7]: 38.6 % of the control
effect of the test compound on enzyme activity [1, 8]: 84.7 % of the control
IC50 [1]: 10 µM
IC50 [2]: 15 µM
IC50 [3]: 3 µM

COc1ccc(Cc2nccc3cc(OC)c(OC)cc23)cc1OC [papaverine.HCl, papaverine, reference compound]
effect of the test compound on enzyme activity [1, 6]: 89.7 % of the control
effect of the test compound on enzyme activity [1, 7]: 60.5 % of the control
effect of the test compound on enzyme activity [1, 8]: 91.2 % of the control
IC50 [1]: 70 µM
IC50 [2]: 90 µM
IC50 [3]: 50 µM

COc1ccc(Cc2nccc3cc(OC)c(OC)cc23)cc1OC [papaverine]
effect on psoriasis (psoriasis [5]): successfully influenced psoriasis
